From patent publication US10335401B2, “Non-aromatic heterocyclic derivative having MGAT2 inhibitory activity” (Shionogi & Co., Ltd., priority 2015, dated 2019)

molecular target: recombinant human MGAT2 (Homo sapiens (Human), UniProt Q3SYC2); test: Measurement of human MGAT2 inhibitory activity; type: biochemical; details: recombinant human MGAT2 membrane fraction (Sf-9); 2-Oleoylglycerol and Oleoyl-CoA substrates; 1 hour at room temperature; Diolein detected by RapidFire Q-TOF MS
Source text: A full-length human MGAT2 gene to which a Flag-tag had been added at the N-terminal was inserted into pFastBac (from Invitrogen). A recombinant baculovirus was produced in accordance with the protocol for a Bac-to-Bac baculovirus expression system (produced by Invitrogen), and Sf-9 cells were infected therewith. The cells were collected and sonicated, and then the membrane fraction was collected through centrifugation.
Solutions of the compounds of the present invention in DMSO were each aliquoted into 0.2-μL portions in a 384-well polystyrene microplate produced by Corning Incorporated, and 5 μL of an enzyme solution prepared with an assay buffer (100 mmol/L phosphate buffer (pH 7.4) containing 2 mmol/L DTT) and 5 μL of a substrate solution (100 mmol/L phosphate buffer (pH 7.4), 30 μmol/L 2-Oleoylglycerol, 10 μmol/L Oleoyl-CoA) were added thereto, and the resultant was stirred and centrifuged, and incubated in a moist chamber at room temperature for 1 hour. […] Diolein as a reaction product (P) of 2-Oleoylglycerol as the substrate and an ammonium adduct ion of the IS were detected, and the peak intensity ratio, P/IS, was calculated from the peak heights to evaluate the inhibitory activity. […] The inhibitory activity was calculated from the formula below with TIBCO Spotfire (produced by TIBCO Software Inc.): Inhibitory activity (%)=[1−{Sample−Control(−)}/{Control(+)−Control(−))}]*100 where Sample indicates a peak intensity ratio: P/IS, when the compound of the present invention was added.

Chain of recombinant human MGAT2 (Q3SYC2 whole entry): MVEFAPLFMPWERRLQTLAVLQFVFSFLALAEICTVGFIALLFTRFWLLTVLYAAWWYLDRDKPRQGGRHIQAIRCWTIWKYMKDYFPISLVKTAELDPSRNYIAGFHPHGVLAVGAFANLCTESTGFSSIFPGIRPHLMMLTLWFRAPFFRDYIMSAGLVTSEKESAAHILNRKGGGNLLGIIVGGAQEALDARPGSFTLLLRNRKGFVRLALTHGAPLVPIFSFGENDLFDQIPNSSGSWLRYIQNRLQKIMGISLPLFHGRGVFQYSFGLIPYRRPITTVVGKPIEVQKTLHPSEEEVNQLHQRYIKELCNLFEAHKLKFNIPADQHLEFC

| SMILES | IC50 [nM] |
| --- | --- |
| CC(C)(O)c1ccc(C2=C(CNC(=O)C3CS(=O)(=O)C3)C(=O)N[C@@](c3ccc(OCCCC(F)(F)F)cc3)(C(F)(F)F)C2)nc1 [Compound I-48] | 3.2 |
| CC(=O)NCC1=C(c2ccc(Br)cn2)C[C@](c2ccc(OCCCC(F)(F)F)cc2)(C(F)(F)F)NC1=O [Compound I-49] | 140 |
| CC(=O)NCC1=C(c2ccc(C(C)=O)cn2)C[C@](c2ccc(OCCCC(F)(F)F)cc2)(C(F)(F)F)NC1=O [Compound I-51] | 130 |
| CC(C)(C#N)C(=O)NCC1=C(c2ccc(C(C)(C)O)cn2)C[C@](c2ccc(OCCCC(F)(F)F)cc2)(C(F)(F)F)NC1=O [Compound I-52] | 3.1 |
| CC(C)c1ccc(C2=C(CNC(=O)C3COC3)C(=O)N[C@@](c3ccc(OCCCC(F)(F)F)cc3)(C(F)(F)F)C2)nc1 [Compound I-53] | 11 |
| CC(C)c1ccc(C2=C(CNC(=O)CC(=O)OC(C)(C)C)C(=O)N[C@@](c3ccc(OCCCC(F)(F)F)cc3)(C(F)(F)F)C2)nc1 [Compound I-54] | 82 |
| CC(C)c1ccc(C2=C(CNC(=O)CC(=O)O)C(=O)N[C@@](c3ccc(OCCCC(F)(F)F)cc3)(C(F)(F)F)C2)nc1 [Compound I-55] | 160 |
| CC(=O)NCC1=C(c2ccc(OC(F)F)cn2)C[C@](c2ccc(OCCCC(F)(F)F)cc2)(C(F)(F)F)NC1=O [Compound I-56] | 17 |
| CS(=O)(=O)CC(=O)NCC1=C(c2ccc(OC(F)F)cn2)C[C@](c2ccc(OCCCC(F)(F)F)cc2)(C(F)(F)F)NC1=O [Compound I-57] | 0.62 |
| CC(=O)NCC1=C(c2ccc(C(F)F)cn2)C[C@](c2ccc(OCCCC(F)(F)F)cc2)(C(F)(F)F)NC1=O [Compound I-58] | 34 |
| CS(=O)(=O)CC(=O)NCC1=C(c2ccc(C(F)F)cn2)C[C@](c2ccc(OCCCC(F)(F)F)cc2)(C(F)(F)F)NC1=O [Compound I-59] | 1.1 |
| CC(C)c1ccc(C2=C(CNC(=O)CO)C(=O)N[C@@](c3ccc(OCCCC(F)(F)F)cc3)(C(F)(F)F)C2)nc1 [Compound I-60] | 27 |
| CC(C)c1ccc(C2=C(CNC(=O)CN(C)C)C(=O)N[C@@](c3ccc(OCCCC(F)(F)F)cc3)(C(F)(F)F)C2)nc1 [Compound I-61] | 27 |
| O=C(CO)NCC1=C(c2ccc(OC(F)F)cn2)C[C@](c2ccc(OCCCC(F)(F)F)cc2)(C(F)(F)F)NC1=O [Compound I-62] | 59 |
| O=C(CO)NCC1=C(c2ccc(C(F)F)cn2)C[C@](c2ccc(OCCCC(F)(F)F)cc2)(C(F)(F)F)NC1=O [Compound I-63] | 110 |
| CC(C)(C)OC(=O)N1CC(C(=O)NCC2=C(c3ccc(C(F)F)cn3)C[C@](c3ccc(OCCCC(F)(F)F)cc3)(C(F)(F)F)NC2=O)C1 [Compound I-64] | 14 |
| O=C1N[C@@](c2ccc(OCCCC(F)(F)F)cc2)(C(F)(F)F)CC(c2ccc(C(F)F)cn2)=C1CNC(=O)C1CNC1 [Compound I-65] | 280 |
| CC1(C(=O)NCC2=C(c3ccc(C(F)F)cn3)C[C@](c3ccc(OCCCC(F)(F)F)cc3)(C(F)(F)F)NC2=O)CNC1 [Compound I-66] | 410 |
| O=C1N[C@@](c2ccc(OCCCC(F)(F)F)cc2)(C(F)(F)F)CC(c2ccc(C(F)F)cn2)=C1CNC(=O)C1(F)CNC1 [Compound I-67] | 40 |
| CC(=O)NCC1=C(c2ncc(C3CC3)s2)C[C@](c2ccc(OCCCC(F)(F)F)cc2)(C(F)(F)F)NC1=O [Compound I-68] | 440 |
| CS(=O)(=O)CC(=O)NCC1=C(c2ncc(C3CC3)s2)C[C@](c2ccc(OCCCC(F)(F)F)cc2)(C(F)(F)F)NC1=O [Compound I-69] | 43 |
| CS(=O)(=O)CC(=O)NCC1=C(c2ccc(Br)cn2)C[C@](c2ccc(OCCCC(F)(F)F)cc2)(C(F)(F)F)NC1=O [Compound I-70] | 5.3 |
| CS(=O)(=O)CC(=O)NCC1=C(c2ccc(Br)cn2)C[C@@](c2ccc(OCCCC(F)(F)F)cc2)(C(F)(F)F)NC1=O [Compound I-71] | 940 |
| C=C(C)c1ccc(C2=C(CNC(=O)CS(C)(=O)=O)C(=O)N[C@@](c3ccc(OCCCC(F)(F)F)cc3)(C(F)(F)F)C2)nc1 [Compound I-72] | 1 |
| C=C(C)c1ccc(C2=C(CNC(=O)CS(C)(=O)=O)C(=O)N[C@](c3ccc(OCCCC(F)(F)F)cc3)(C(F)(F)F)C2)nc1 [Compound I-73] | 77 |

| SMILES | IC50 [nM] |
| --- | --- |
| CS(=O)(=O)CC(=O)NCC1=C(c2ccc(C(F)F)cn2)C[C@](c2ccc(C(F)(F)F)cc2)(C(F)(F)F)NC1=O [Compound I-75] | 78 |
| CS(=O)(=O)CC(=O)NCC1=C(c2ccc(OC(F)F)cn2)C[C@](c2ccc(Br)cc2)(C(F)(F)F)NC1=O [Compound I-78] | 25 |
| CC(C)(C(=O)NCC1=C(c2ccc(C(F)F)cn2)C[C@](c2ccc(OCCCC(F)(F)F)cc2)(C(F)(F)F)NC1=O)S(C)(=O)=O [Compound I-80] | 990 |
| CS(=O)(=O)C1(C(=O)NCC2=C(c3ccc(C(F)F)cn3)C[C@](c3ccc(OCCCC(F)(F)F)cc3)(C(F)(F)F)NC2=O)CC1 [Compound I-81] | 140 |
| CC(C(=O)NCC1=C(c2ccc(C(F)F)cn2)C[C@](c2ccc(OCCCC(F)(F)F)cc2)(C(F)(F)F)NC1=O)S(C)(=O)=O (some centres unmarked) [Compound I-83] | 22 |
| CC(C(=O)NCC1=C(c2ccc(C(F)F)cn2)C[C@](c2ccc(OCCCC(F)(F)F)cc2)(C(F)(F)F)NC1=O)S(C)(=O)=O (some centres unmarked) [Compound I-85] | 24 |
| CS(=O)(=O)CC(=O)NCC1=C(c2ccc(C(F)F)cn2)C[C@](c2ccc(CCC(F)(F)F)cc2)(C(F)(F)F)NC1=O [Compound I-86] | 1.9 |
| CS(=O)(=O)CC(=O)NCC1=C(c2ccc(C(F)F)cn2)C[C@](c2ccc(C3CC3)cc2)(C(F)(F)F)NC1=O [Compound I-88] | 21 |
| CS(=O)(=O)CC(=O)NCC1=C(c2ccc(C(F)F)cn2)C[C@](c2ccc(OC(F)(F)F)cc2)(C(F)(F)F)NC1=O [Compound I-90] | 27 |
| CS(=O)(=O)CC(=O)NCC1=C(c2ccc(C(F)F)cn2)C[C@](c2ccc(OCC(F)(F)F)cc2)(C(F)(F)F)NC1=O [Compound I-91] | 6.8 |
| CS(=O)(=O)CC(=O)NCC1=C(c2ccc(C(F)F)cn2)C[C@](c2ccc(Br)cc2)(C(F)(F)F)NC1=O [Compound I-94] | 59 |
| CS(=O)(=O)CC(=O)NCC1=C(c2ccc(OC(F)F)cn2)C[C@](c2ccc(C3CC3)cc2)(C(F)(F)F)NC1=O [Compound I-95] | 17 |
| CS(=O)(=O)CC(=O)NCC1=C(c2ccc(C(F)F)cn2)C[C@](c2ccc(CN3CCOCC3)cc2)(C(F)(F)F)NC1=O [Compound I-97] | 39 |
| Cn1cc(-c2ccc([C@]3(C(F)(F)F)CC(c4ccc(OC(F)F)cn4)=C(CNC(=O)CS(C)(=O)=O)C(=O)N3)cc2)cn1 [Compound I-98] | 70 |
| CS(=O)(=O)CC(=O)NCC1=C(c2ccc(OC(F)F)cn2)C[C@](c2ccc(-c3ccccc3)cc2)(C(F)(F)F)NC1=O [Compound I-99] | 26 |
| Cn1ccc(-c2ccc([C@]3(C(F)(F)F)CC(c4ccc(OC(F)F)cn4)=C(CNC(=O)CS(C)(=O)=O)C(=O)N3)cc2)cc1=O [Compound I-100] | 370 |
| CS(=O)(=O)CC(=O)NCC1=C(c2ccc(OC(F)F)cn2)C[C@](c2ccc(C3=CCOCC3)cc2)(C(F)(F)F)NC1=O [Compound I-101] | 42 |
| COC/C=C/c1ccc([C@]2(C(F)(F)F)CC(c3ccc(OC(F)F)cn3)=C(CNC(=O)CS(C)(=O)=O)C(=O)N2)cc1 [Compound I-102] | 21 |
| CS(=O)(=O)CC(=O)NCC1=C(c2ccc(OC(F)F)cn2)C[C@](c2ccc(OCCCC(F)(F)F)cn2)(C(F)(F)F)NC1=O [Compound I-103] | 6.6 |
| CS(=O)(=O)CC(=O)NCC1=C(c2ccc(OC(F)F)cn2)C[C@](c2ccc(OCC(F)F)cc2)(C(F)(F)F)NC1=O [Compound I-105] | 9.2 |
| CS(=O)(=O)CC(=O)NCC1=C(c2ccc(OC(F)F)cn2)C[C@](c2ccc(C(F)(F)F)cc2)(C(F)(F)F)NC1=O [Compound I-108] | 46 |
| CS(=O)(=O)CC(=O)NCC1=C(c2ccc(C(F)F)cn2)CC(c2ccc(Br)cc2F)(C(F)(F)F)NC1=O (centres unmarked) [Compound I-111] | 33 |
| O=C(CC(F)(F)F)NCC1=C(c2ccc(C(F)F)cn2)C[C@](c2ccc(OCCCC(F)(F)F)cc2)(C(F)(F)F)NC1=O [Compound I-112] | 3.8 |
| CS(=O)(=O)CC(=O)NCC1=C(c2ccc(OC(F)F)cn2)C[C@](c2ccc(OCC(F)(F)F)cc2)(C(F)(F)F)NC1=O [Compound I-114] | 4.1 |
| CS(=O)(=O)CC(=O)NCC1=C(c2ccc(C(F)F)cn2)C[C@](c2ccccc2)(C(F)(F)F)NC1=O [Compound I-115] | 110 |
